The record followed here is the Kinase Knowledgebase extract (Sharma et al. 2016).

pIC50: −log10 of the molar value. Some results are limits rather than exact numbers.

As a reminder, the pIC50 is −log10 of the IC50, conventionally taken in molar units.

PIK3CD (Human), sequence (O00329 whole entry, looked up): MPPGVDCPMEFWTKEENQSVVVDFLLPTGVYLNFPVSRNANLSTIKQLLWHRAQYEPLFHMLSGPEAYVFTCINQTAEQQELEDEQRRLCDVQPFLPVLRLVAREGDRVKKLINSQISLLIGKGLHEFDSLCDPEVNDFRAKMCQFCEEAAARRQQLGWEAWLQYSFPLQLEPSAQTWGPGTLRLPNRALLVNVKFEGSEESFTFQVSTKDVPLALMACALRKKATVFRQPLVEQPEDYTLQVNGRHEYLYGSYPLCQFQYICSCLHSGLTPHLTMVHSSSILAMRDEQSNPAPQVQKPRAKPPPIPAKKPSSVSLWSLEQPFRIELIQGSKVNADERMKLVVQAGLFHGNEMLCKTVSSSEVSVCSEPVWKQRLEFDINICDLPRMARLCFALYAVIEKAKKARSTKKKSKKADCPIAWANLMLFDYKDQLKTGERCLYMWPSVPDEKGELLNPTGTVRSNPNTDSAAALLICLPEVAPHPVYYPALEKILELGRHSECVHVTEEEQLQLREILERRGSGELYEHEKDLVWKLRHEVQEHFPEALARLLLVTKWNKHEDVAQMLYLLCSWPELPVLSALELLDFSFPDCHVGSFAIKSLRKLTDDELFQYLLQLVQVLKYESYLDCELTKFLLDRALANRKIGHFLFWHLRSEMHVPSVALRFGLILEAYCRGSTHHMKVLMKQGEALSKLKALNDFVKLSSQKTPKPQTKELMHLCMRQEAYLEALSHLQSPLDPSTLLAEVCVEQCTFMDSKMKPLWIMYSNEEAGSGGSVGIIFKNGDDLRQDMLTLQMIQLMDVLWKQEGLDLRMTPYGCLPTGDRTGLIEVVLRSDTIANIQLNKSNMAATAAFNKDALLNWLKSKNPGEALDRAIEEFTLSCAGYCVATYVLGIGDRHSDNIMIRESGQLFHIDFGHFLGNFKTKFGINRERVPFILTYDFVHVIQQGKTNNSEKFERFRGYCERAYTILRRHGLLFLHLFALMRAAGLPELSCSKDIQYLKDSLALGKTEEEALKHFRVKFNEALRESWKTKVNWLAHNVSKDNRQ

This test addresses PIK3CD (Human) (UniProt O00329). The test can be described thus: Assessment of PIK3CD Kinase Activity.
`FC(F)(F)CN1CCN(Cc2cc3nc(-c4cccc5[nH]ncc45)nc(N4CCOCC4)c3s2)CC1`: the pIC50 is ≥ 7.00.

Take `CC(C)(O)C1CCN(Cc2cc3nc(-c4cccc5[nH]ncc45)nc(N4CCOCC4)c3s2)CC1`: the pIC50 is ≥ 7.00.

Take `c1cc(-c2nc(N3CCOCC3)c3sc(CN4CCN(Cc5cscn5)CC4)cc3n2)c2cn[nH]c2c1`: the negative logarithm of the IC50 (pIC50) is ≥ 7.00.

`COCCN(C1CCN(Cc2cc3nc(-c4cccc5[nH]ncc45)nc(N4CCOCC4)c3s2)CC1)S(C)(=O)=O`: the pIC50 was ≥ 7.00.

In the case of `Cc1cccc(CN2CCN(Cc3cc4nc(-c5cccc6[nH]ncc56)nc(N5CCOCC5)c4s3)CC2)n1`, the pIC50 was ≥ 7.00.

Take `[O-][n+]1cccc(CN2CCN(Cc3cc4nc(-c5cccc6[nH]ncc56)nc(N5CCOCC5)c4s3)CC2)c1`: the pIC50 was ≥ 7.00.

Turning to `COCCN(C)C(=O)N1CCN(Cc2cc3nc(-c4cccc5[nH]ccc45)nc(N4CCOCC4)c3s2)CC1`, the pIC50 was ≥ 7.00.

In the case of `Cc1ccc(CN2CCN(Cc3cc4nc(-c5cccc6[nH]ncc56)nc(N5CCOCC5)c4s3)CC2)o1`, the negative-log IC50 (pIC50) was ≥ 7.00.

As to `Cn1ccnc1CN1CCN(Cc2cc3nc(-c4cccc5[nH]ncc45)nc(N4CCOCC4)c3s2)CC1`, the negative logarithm of the IC50 (pIC50) was ≥ 7.00.

As to `c1ccc(CN2CCN(Cc3cc4nc(-c5cccc6[nH]ncc56)nc(N5CCOCC5)c4s3)CC2)nc1`, the pIC50 was ≥ 7.00.

On to `c1cc(-c2nc(N3CCOCC3)c3sc(CN4CCC(CN5CCOCC5)CC4)cc3n2)c2cn[nH]c2c1`, for which the negative-log IC50 (pIC50) is ≥ 7.00.

On to `CNC(=O)[C@@H]1CCCN(Cc2cc3nc(-c4cccc5[nH]ncc45)nc(N4CCOCC4)c3s2)C1`, for which the pIC50 is ≥ 7.00.

As for `CN1CCN(Cc2cc3nc(-c4cccc5c4cnn5C)nc(N4CCOCC4)c3s2)CC1`, the pIC50 was ≥ 7.00.

As to `COCCN1CCN(Cc2cc3nc(-c4cccc5[nH]ncc45)nc(N4CCOCC4)c3s2)CC1`, the pIC50 was ≥ 7.00.

For the molecule `COCCN(C)C1CCN(Cc2cc3nc(-c4cccc5[nH]ncc45)nc(N4CCOCC4)c3s2)CC1`, the pIC50 is ≥ 7.00.

On to `CN(C)CC1CCN(Cc2cc3nc(-c4cccc5[nH]ncc45)nc(N4CCOCC4)c3s2)CC1`, for which the negative-log IC50 (pIC50) was ≥ 7.00.

Turning to `c1cnc(N2CCN(Cc3cc4nc(-c5cccc6[nH]ncc56)nc(N5CCOCC5)c4s3)CC2)nc1`, the pIC50 was ≥ 7.00.

Take `OCCN1CCN(Cc2cc3nc(-c4cccc5[nH]ncc45)nc(N4CCOCC4)c3s2)CC1`: the pIC50 was ≥ 7.00.

Regarding `c1ccc(OC2CCN(Cc3cc4nc(-c5cccc6[nH]ncc56)nc(N5CCOCC5)c4s3)CC2)nc1`, the pIC50 was ≥ 7.00.

`c1ccc(N2CCN(Cc3cc4nc(-c5cccc6[nH]ncc56)nc(N5CCOCC5)c4s3)CC2)nc1`: the pIC50 was ≥ 7.00.

Turning to `c1cc(-c2nc(N3CCOCC3)c3sc(CN4CCN(Cc5cnc[nH]5)CC4)cc3n2)c2cn[nH]c2c1`, the pIC50 is ≥ 7.00.

In the case of `COCC1CCN(Cc2cc3nc(-c4cccc5[nH]ncc45)nc(N4CCOCC4)c3s2)CC1`, the pIC50 is ≥ 7.00.

Regarding `OCCC1CCN(Cc2cc3nc(-c4cccc5[nH]ncc45)nc(N4CCOCC4)c3s2)CC1`, the negative logarithm of the IC50 (pIC50) was ≥ 7.00.

On to `COCCN(C)CC1CCN(Cc2cc3nc(-c4cccc5[nH]ncc45)nc(N4CCOCC4)c3s2)CC1`, for which the pIC50 is ≥ 7.00.

As to `C[C@@H]1CN(C)C[C@H](C)N1Cc1cc2nc(-c3cccc4[nH]ncc34)nc(N3CCOCC3)c2s1`, the negative-log IC50 (pIC50) is ≥ 7.00.

In the case of `COCCN(CC1CC1)C1CCN(Cc2cc3nc(-c4cccc5[nH]ncc45)nc(N4CCOCC4)c3s2)CC1`, the pIC50 was ≥ 7.00.

Regarding `CN1CCN(Cc2cc3nc(-c4cccc5nn(C)cc45)nc(N4CCOCC4)c3s2)CC1`, the pIC50 is ≥ 7.00.

For the molecule `CCC(CC)(COC)N1CCN(Cc2cc3nc(-c4cccc5[nH]ncc45)nc(N4CCOCC4)c3s2)CC1`, the pIC50 is ≥ 7.00.

`c1cc(-c2nc(N3CCOCC3)c3sc(CN4CCC(Cn5ccnc5)CC4)cc3n2)c2cn[nH]c2c1`: the pIC50 is ≥ 7.00.

Take `COCCN(C)C(=O)C1CCN(Cc2cc3nc(-c4cccc5[nH]ncc45)nc(N4CCOCC4)c3s2)CC1`: the pIC50 was ≥ 7.00.

In the case of `CN1CCN(Cc2cc3nc(-c4cc(F)cc5[nH]ncc45)nc(N4CCOCC4)c3s2)CC1`, the pIC50 was ≥ 7.00.

On to `COCC(=O)N(C)C1CCN(Cc2cc3nc(-c4cccc5[nH]ncc45)nc(N4CCOCC4)c3s2)CC1`, for which the pIC50 was ≥ 7.00.

On to `CN(C1CCN(Cc2cc3nc(-c4cccc5[nH]ncc45)nc(N4CCOCC4)c3s2)CC1)S(C)(=O)=O`, for which the negative logarithm of the IC50 (pIC50) was ≥ 7.00.

Take `CN(C)C(=O)N1CCN(Cc2cc3nc(-c4cccc5[nH]ccc45)nc(N4CCOCC4)c3s2)CC1`: the pIC50 was ≥ 7.00.

Consider `COCCCN(C)C1CCN(Cc2cc3nc(-c4cccc5[nH]ncc45)nc(N4CCOCC4)c3s2)CC1`, for which the pIC50 is ≥ 7.00.

As for `CN(C)CCCS(=O)(=O)N1CCN(Cc2cc3nc(-c4cccc5[nH]ncc45)nc(N4CCOCC4)c3s2)CC1`, the pIC50 is ≥ 7.00.

In the case of `OC1(c2nccs2)CCN(Cc2cc3nc(-c4cccc5[nH]ncc45)nc(N4CCOCC4)c3s2)CC1`, the pIC50 is ≥ 7.00.

For the molecule `CNC(=O)C(C)(C)N1CCN(Cc2cc3nc(-c4cccc5[nH]ncc45)nc(N4CCOCC4)c3s2)CC1`, the negative-log IC50 (pIC50) is ≥ 7.00.

Consider `Cc1csc(CN2CCN(Cc3cc4nc(-c5cccc6[nH]ncc56)nc(N5CCOCC5)c4s3)CC2)n1`, for which the pIC50 is ≥ 7.00.

As for `CNC(=O)C1CCCN(Cc2cc3nc(-c4cccc5[nH]ncc45)nc(N4CCOCC4)c3s2)C1` (stereo not drawn), the negative logarithm of the IC50 (pIC50) is ≥ 7.00.

In the case of `CN1CCN(Cc2cc3nc(-c4cccc5[nH]ccc45)nc(N4CCOCC4)c3s2)CC1`, the negative logarithm of the IC50 (pIC50) is ≥ 7.00.

For the molecule `COCCN(CC(F)(F)F)C1CCN(Cc2cc3nc(-c4cccc5[nH]ncc45)nc(N4CCOCC4)c3s2)CC1`, the pIC50 was ≥ 7.00.

Consider `COCCN(C(C)C)C1CCN(Cc2cc3nc(-c4cccc5[nH]ncc45)nc(N4CCOCC4)c3s2)CC1`, for which the negative logarithm of the IC50 (pIC50) was ≥ 7.00.

On to `O=C(N1CCOCC1)N1CCN(Cc2cc3nc(-c4cccc5[nH]ccc45)nc(N4CCOCC4)c3s2)CC1`, for which the pIC50 is ≥ 7.00.

For `COCCC1CCN(Cc2cc3nc(-c4cccc5[nH]ncc45)nc(N4CCOCC4)c3s2)CC1`, the negative logarithm of the IC50 (pIC50) is ≥ 7.00.

As to `CNC(=O)[C@H]1CCCN(Cc2cc3nc(-c4cccc5[nH]ncc45)nc(N4CCOCC4)c3s2)C1`, the pIC50 is ≥ 7.00.

Consider `c1cc(-c2nc(N3CCOCC3)c3sc(CN4CCNCC4)cc3n2)c2cc[nH]c2c1`, for which the negative logarithm of the IC50 (pIC50) is ≥ 7.00.

Turning to `COCCOC1CCN(Cc2cc3nc(-c4cccc5[nH]ncc45)nc(N4CCOCC4)c3s2)CC1`, the pIC50 was ≥ 7.00.

Consider `c1cncc(CN2CCN(Cc3cc4nc(-c5cccc6[nH]ncc56)nc(N5CCOCC5)c4s3)CC2)c1`, for which the negative-log IC50 (pIC50) is ≥ 7.00.

On to `NC(=O)C1CCN(Cc2cc3nc(-c4cccc5[nH]ncc45)nc(N4CCOCC4)c3s2)CC1`, for which the pIC50 was ≥ 7.00.

Consider `O=C1CN(Cc2cc3nc(-c4cccc5[nH]ncc45)nc(N4CCOCC4)c3s2)CCN1CCO`, for which the negative logarithm of the IC50 (pIC50) is ≥ 7.00.

Regarding `CN(C)C(=O)N1CCN(Cc2cc3nc(-c4cccc5[nH]ncc45)nc(N4CCOCC4)c3s2)CC1`, the pIC50 was ≥ 7.00.

For `COCCCS(=O)(=O)C1CCN(Cc2cc3nc(-c4cccc5[nH]ncc45)nc(N4CCOCC4)c3s2)CC1`, the negative logarithm of the IC50 (pIC50) was ≥ 7.00.

As to `COCC1CCCN(Cc2cc3nc(-c4cccc5[nH]ncc45)nc(N4CCOCC4)c3s2)C1` (stereo not drawn), the negative logarithm of the IC50 (pIC50) is ≥ 7.00.

Consider `CN1CCN(Cc2cc3nc(-c4cccc5[nH]ncc45)nc(N4CCOCC4)c3s2)CC1`, for which the pIC50 was ≥ 7.00.

Turning to `Cc1cc(CN2CCN(Cc3cc4nc(-c5cccc6[nH]ncc56)nc(N5CCOCC5)c4s3)CC2)no1`, the negative logarithm of the IC50 (pIC50) is ≥ 7.00.

Consider `C[C@@H]1CN(Cc2cc3nc(-c4cccc5[nH]ncc45)nc(N4CCOCC4)c3s2)C[C@H](C)N1Cc1nccs1`, for which the pIC50 is ≥ 7.00.

As to `C[C@@H]1CN(Cc2cc3nc(-c4cccc5[nH]ncc45)nc(N4CCOCC4)c3s2)C[C@H](C)N1Cc1ccccn1`, the negative-log IC50 (pIC50) was ≥ 7.00.

For the molecule `CNC(=O)C1CCN(Cc2cc3nc(-c4cccc5[nH]ncc45)nc(N4CCOCC4)c3s2)CC1`, the negative-log IC50 (pIC50) was ≥ 7.00.

Regarding `CN(C)C1CCN(Cc2cc3nc(-c4cccc5[nH]ccc45)nc(N4CCOCC4)c3s2)CC1`, the negative logarithm of the IC50 (pIC50) was ≥ 7.00.

With `c1cc(-c2nc(N3CCOCC3)c3sc(CN4CCN(c5nccs5)CC4)cc3n2)c2cn[nH]c2c1`, the negative-log IC50 (pIC50) is ≥ 7.00.

`c1cc(-c2nc(N3CCOCC3)c3sc(CN4CCC(N5CCOCC5)CC4)cc3n2)c2cn[nH]c2c1`: the pIC50 is ≥ 7.00.

Turning to `OCCN1CCN(Cc2cc3nc(-c4cccc5[nH]ccc45)nc(N4CCOCC4)c3s2)CC1`, the pIC50 was ≥ 7.00.

With `CS(=O)(=O)N1CCN(Cc2cc3nc(-c4cccc5[nH]ccc45)nc(N4CCOCC4)c3s2)CC1`, the pIC50 was ≥ 7.00.

For `COCCN(C)C1CCN(Cc2cc3nc(-c4cccc5[nH]ccc45)nc(N4CCOCC4)c3s2)CC1`, the negative-log IC50 (pIC50) is ≥ 7.00.

In the case of `COCCN(C)C1CCCN(Cc2cc3nc(-c4cccc5[nH]ncc45)nc(N4CCOCC4)c3s2)C1` (stereo not drawn), the pIC50 is ≥ 7.00.

Turning to `CC(C)(C(N)=O)N1CCN(Cc2cc3nc(-c4cccc5[nH]ncc45)nc(N4CCOCC4)c3s2)CC1`, the pIC50 was ≥ 7.00.

For the molecule `COCCN(Cc1nccs1)C1CCN(Cc2cc3nc(-c4cccc5[nH]ncc45)nc(N4CCOCC4)c3s2)CC1`, the pIC50 is ≥ 7.00.

With `c1ccc(CC2CCN(Cc3cc4nc(-c5cccc6[nH]ncc56)nc(N5CCOCC5)c4s3)CC2)nc1`, the pIC50 is ≥ 7.00.

Consider `OCC1CCCN(Cc2cc3nc(-c4cccc5[nH]ncc45)nc(N4CCOCC4)c3s2)C1` (stereo not drawn), for which the pIC50 was ≥ 7.00.

Take `OC1(Cc2ccccn2)CCN(Cc2cc3nc(-c4cccc5[nH]ncc45)nc(N4CCOCC4)c3s2)CC1`: the pIC50 was ≥ 7.00.

For the molecule `CS(=O)(=O)N1CCN(Cc2cc3nc(-c4cccc5[nH]ncc45)nc(N4CCOCC4)c3s2)CC1CO` (stereo not drawn), the negative-log IC50 (pIC50) is ≥ 7.00.

On to `c1cc(-c2nc(N3CCOCC3)c3sc(CN4CCC(N5CCOCC5)CC4)cc3n2)c2cc[nH]c2c1`, for which the pIC50 is ≥ 7.00.

On to `CC(C)(C(=O)N1CCCC1)N1CCN(Cc2cc3nc(-c4cccc5[nH]ncc45)nc(N4CCOCC4)c3s2)CC1`, for which the pIC50 is ≥ 7.00.

Consider `O=S(=O)(CCCN1CCOCC1)N1CCN(Cc2cc3nc(-c4cccc5[nH]ncc45)nc(N4CCOCC4)c3s2)CC1`, for which the pIC50 is ≥ 7.00.

On to `CS(=O)(=O)C1CCN(Cc2cc3nc(-c4cccc5[nH]ncc45)nc(N4CCOCC4)c3s2)CC1`, for which the pIC50 is ≥ 7.00.

Consider `CC(C)(O)CN1CCN(Cc2cc3nc(-c4cccc5[nH]ncc45)nc(N4CCOCC4)c3s2)CC1`, for which the pIC50 is ≥ 7.00.

With `CC1CCCN(Cc2cc3nc(-c4cccc5[nH]ncc45)nc(N4CCOCC4)c3s2)C1` (stereo not drawn), the negative logarithm of the IC50 (pIC50) is ≥ 7.00.
